Key:
[1] = molecular target: anti-steroid (unprocessed rabbit serum 540); test: Competitive inhibition of binding of [3H] triamcinolone to anti-steroid, unprocessed rabbit serum 540; settings: for Kd: read-out: Competitive inhibition of binding of [3H] triamcinolone, Rabbit Serum 540 Unprocessed (apparent Kd)
Method: FIG. 4. […] See legend to Table 1 for the experimental procedure.
New Zealand white rabbits were immunized by multiple intradermal injections of a total of 1 ml of triamcinolone-BSA (2 mg/ml) in saline emulsified with an equal volume of complete Freunds adjuvant. Booster injections were given three weeks later and then at monthly intervals. Animals were bled bi-weekly from the ear vein and the sera stored at 4° C. until required.

[2] = molecular target: affinity purified antisteroid; test: Competitive inhibition of binding of [3H] triamcinolone to affinity purified antisteroid; set-up: species or system rabbit; settings: for Kd: read-out: Competitive inhibition of binding of [3H] triamcinolone, Affinity purified (apparent Kd)
Method: Thirty to 40 ml of serum obtained in part (a) of this example were passed slowly (±3.5 ml/hr) through the AH-Sepharose 4B triamcinolone column prepared according to (b) above. After washing with PBS to remove all unbound protein, the antibody was eluted with 0.2 M glycine pH 2.2 or 2.8. The eluate was dialyzed against 2 liters, 0.01 M PBS buffer pH 7.4 and the buffer changed at least 4 times before concentrating by vacuum dialysis at 4° C.
the glucocorticoid receptor, unprocessed rabbit serum 540, affinity
purified antisteroid and antisteroid Fab fragments. Assays with the […]

[3] = molecular target: antisteroid Fab fragments; test: Competitive inhibition of binding of [3H] triamcinolone to antisteroid Fab fragments; settings: read-out: Competitive inhibition of binding of [3H] triamcinolone, Rabbit serum 541 Fab fragments (apparent Kd)
Method: To the dialysate was added 0.1 M dithiothreitol (DTT) (15 microliters) EDTA (2 mg) and 0.2 mg mercuripapain (5 microliters) and the solution was incubated overnight at 37° C. It was then dialyzed against 4 l distilled H2 O for 3 hrs and then against 1 liter of PBS for 2 hrs and then applied to a Sephadex G100 column (1×5×90 cms) and eluted (±5 ml/hr) with 0.01 M PBS pH 7.4. One ml fractions were collected. Fractions 53-79 were combined and examined at 280 nm for protein content. Undigested IgG and Fc fragments were removed by passage through a protein A Sepharose column (5 ml bed volume); unbound Fab was eluted with 0.01 M PBS pH 7.4. The eluate was concentrated by vacuum dialysis.

[4] = molecular target: T1, binding of 8G11-C6 to partially purified glucocorticoid receptor (Rattus norvegicus, UniProt P06536); test: ELISA inhibition of binding of 8G11-C6 to partially purified glucocorticoid receptor; settings: ELISA (FIG. 11)
T1 construct: the glucocorticoid receptor was partially purified from rat liver cytosol; from tissue; host or cells: liver cytosol of Sprague-Dawley rats, receptor partially purified by the cited method of Gametchu & Harrison
T1 sequence (P06536 1-795): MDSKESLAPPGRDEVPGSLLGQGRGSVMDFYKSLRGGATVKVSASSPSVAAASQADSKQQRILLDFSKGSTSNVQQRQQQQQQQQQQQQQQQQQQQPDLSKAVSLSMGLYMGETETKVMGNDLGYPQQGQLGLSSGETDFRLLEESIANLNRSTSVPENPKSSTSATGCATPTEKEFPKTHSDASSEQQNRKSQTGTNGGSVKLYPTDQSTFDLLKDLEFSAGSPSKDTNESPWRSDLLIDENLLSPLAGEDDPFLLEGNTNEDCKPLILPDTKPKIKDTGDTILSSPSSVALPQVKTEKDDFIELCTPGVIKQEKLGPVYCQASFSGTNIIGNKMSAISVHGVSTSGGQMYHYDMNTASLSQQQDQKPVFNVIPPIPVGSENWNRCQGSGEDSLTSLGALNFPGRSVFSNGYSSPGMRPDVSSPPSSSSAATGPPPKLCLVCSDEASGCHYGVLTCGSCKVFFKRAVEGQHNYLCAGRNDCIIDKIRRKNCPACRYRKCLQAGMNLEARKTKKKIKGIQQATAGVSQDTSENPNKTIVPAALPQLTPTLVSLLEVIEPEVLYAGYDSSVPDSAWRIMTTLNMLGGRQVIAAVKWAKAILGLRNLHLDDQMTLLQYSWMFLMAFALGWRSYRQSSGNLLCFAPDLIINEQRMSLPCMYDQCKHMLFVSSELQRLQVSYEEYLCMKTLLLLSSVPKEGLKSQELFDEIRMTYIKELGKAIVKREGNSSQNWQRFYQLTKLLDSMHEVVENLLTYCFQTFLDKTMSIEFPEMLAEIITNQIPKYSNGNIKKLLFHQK
Method: FIG. 11. […] 200 microliters containing 0.54 micrograms protein of a partially purified receptor preparation in 0.1M NaHC03 pH 9.3 was added to the wells of polystyrene plates. These were incubated for 2 hrs at 37° C. Washed 2×with PBS […] 0.02% tween. […] See methods for the methodology employed. The inhibitors used were triamcinolone acetonide ( ), rabbit serum albumin ( ), and triamcinolone - RSA ( ).

[5] = system: binding of 8G11-C6 to anti-steroid Fab fragments; test: ELISA inhibition of binding of 8G11-C6 to anti-steroid Fab fragments; settings: ELISA (FIGS. 7, 8, 9)
Method: Controls with no inhibitor were included.
FIG. 9. […] The method used was similar to that described in the exerimental procedure. […] 200λ of the incubation mixture was then added to microtiter wells previously coated with 10 ng anti-steroid Fab fragments and incubated for 2 hrs at 37° C.
The presence of anti-idiotypic antibodies in the hybridoma culture medium were assayed by a double antibody sandwich ELISA. […] After washing twice with 0.01 M phosphate buffer--0.14M NaCl, pH 7.4, containing 0.05% Tween-20 (PBS-Tween), the culture medium from the hybridomas was added and incubated at 37° C. for 2 hrs. The wells were washed three times with PBS-Tween and 200 microliters of 1:3,000 dilution in PBS-Tween of goat anti-mouse 1gM-1gG horseradish peroxidase (Tago) was added. After incubating 1 hr at 37°, the wells were washed three times with PBS-tween and 200 microliters substrate (7 mg o-phenylenediamine dichloride in 10 ml 0.1 M citrate-phosphate buffer, pH 4.8 containing 5 microliters of 30% H2 O2) was added. Depending on the intensity of the color, the reaction was stopped after 5-10 min by the addition of 50 microliters 8N H2 SO4 and the OD determined (Titretek) at 492 nm.

[6] = molecular target: Fab fragments of affinity purified anti-steroid antibodies; test: Scatchard plot of binding of labeled steroid to Fab fragments of affinity purified anti-steroid antibodies; set-up: species or system rabbit; settings: curved plot with [3H]TA, linear plot with [3H]-dexamethasone; read-out: Kd for Fab fragments of the anti-steroid, from Scatchard plots
Method: FIG. 3. Scatchard plot of the binding of [^3 H] triamcinolone to Fab fragments of affinity purified anti-steroid antibodies. Fab fragments (0.227 micrograms) were incubated with increasing concentrations of [^3 H] triamcinolone (0.4-62.5nM) in the presence of 0.01M phosphate buffered saline pH 7.4 containing 0.1% gelatin in a total volume of 200 microliters. Total and non-specific binding (50 micromoles triamcinolone acetonide) were determined for each of the [^3 H] triamcinolone levels and all points were in duplicate. After incubating 1 hr at room temperature, add 1 ml cold 5% charcoal/dextran (diluted 1:40 in 0.01M PBS containing 0.1% gelatin) and let stand on ice for 10 min. Centrifuge down the charcoal/dextran, decant the supernatant into scintillation vials and determine the radioactivity.

glucocorticoid receptor = molecular target: T2, glucocorticoid receptor (Rattus norvegicus, UniProt P06536)
T2 sequence (P06536 1-795): T1 sequence (P06536 1-795)
Method: Incubate in a total volume of 500 microliters, for 2 hrs at 4° C. 20 mM HEPES buffer containing 50 mM NaCl, 1 mM EDTA, 10% glycerol 0.1 mM DTT pH 7.6, 10nM [3H]TA and 200 microliters rat liver cytosol. Add 250 microliters 5% charcoal/dextran solution and after 10 min centrifuge and determine the radioactivity in 200 λaliquot.
Four to 6 days after 150-200 g Sprague-Dawley male rats were adrenalectomized, they were anesthesized with ether and the livers perfused in situ through the portal vein with 50 ml of cold saline. The livers were then removed, homogenized with a Teflon-glass homogenizer in 1.1 volume of 10 mM HEPES, containing 50 mM NaCl, 1 mM Na2 EDTA, 1 mM dithiothreitol (DTT) and 10% glycerol, pH 7.6, and centrifuged for 1 hr at 250,000 g at 4° C. The upper fatty layer was discarded. The supernatant was either frozen immediately in liquid-nitrogen and used for assays or labeled by incubating with 75 nM [^3 H]triamcinolone acetonide for 2 hrs at 4° C. Unbound steroid was removed with 5% dextran-coated charcoal. The [^3 H]TA labeled glucocorticoid receptor was partially purified by the method described by Gametchu & Harrison (9), the only modification being that the phosphocellulose was omitted from the first purification step.
glucocorticoid receptor included 100 ml of rat liver cytosol. 10^-8 M
[^3 H]TA and increasing concentrations of steroid in a total volume o
200 ml. […]

| Compound | Kd [1] | Kd [2] | Kd [3] | effect on the binding of 8G11-C6 to anti-steroid Fab fragments [5] | also measured |
| --- | --- | --- | --- | --- | --- |
| CC(=O)[C@H]1CC[C@H]2[C@@H]3CCC4=CC(=O)CC[C@]4(C)[C@H]3CC[C@]12C [Progesterone] | 100 µM | 100 µM | 100 µM | – | – |
| C[C@@H]1C[C@H]2[C@@H]3CCC4=CC(=O)C=C[C@]4(C)[C@@]3(F)[C@@H](O)C[C@]2(C)[C@@]1(O)C(=O)CO [Dexamethasone] | 0.12 µM | 0.62 µM | 0.63 µM | – | – |
| C[C@]12C[C@H](O)[C@H]3[C@@H](CCC4=CC(=O)CC[C@@]43C)[C@@H]1CC[C@@H]2C(=O)CO [Corticosterone] | 630 µM | 100 µM | 100 µM | – | – |
| C[C@]12CC[C@H]3[C@@H](CCC4=CC(=O)CC[C@@]43C)[C@@H]1CC[C@@H]2O [Testosterone] | – | – | – | Neither triamcinolone, nor other steroids such as testosterone and estradiol-17β had any effect | Competitive inhibition of binding of [3H] triamcinolone, Rabbit Serum 540 Unprocessed (apparent Kd) [1]: not inhibited; Competitive inhibition of binding of [3H] triamcinolone, Affinity purified (apparent Kd) [2]: not inhibited; effect on the binding of 8G11-C6 to partially purified glucocorticoid receptor [4]: only a slight inhibitory effect |
| C[C@]12CCC(=O)C=C1CC[C@@H]1[C@@H]2[C@@H](O)C[C@@]2(C)[C@H]1CC[C@]2(O)C(=O)CO [Hydrocortisone] | 5 µM | 100 µM | 100 µM | – | – |
| rabbit serum albumin: carrier protein tested alone as inhibitor | – | – | – | did not affect | – |
| C[C@]12CCC(=O)C[C@@H]1CC[C@@H]1[C@@H]2CC[C@]2(C)[C@@H](O)CC[C@@H]12 [Dihydrotestosterone] | – | – | – | – | Competitive inhibition of binding of [3H] triamcinolone, Rabbit Serum 540 Unprocessed (apparent Kd) [1]: had no effect |
| CC1(C)O[C@@H]2C[C@H]3[C@@H]4CCC5=CC(=O)C=C[C@]5(C)[C@@]4(F)[C@@H](O)C[C@]3(C)[C@]2(C(=O)CO)O1 [triamcinolone acetonide] | – | – | – | did not affect | – |
| [3H]C1C2=CC(=O)C=C[C@]2(C)[C@@]2(F)[C@@H](O)C[C@@]3(C)[C@@H](C[C@@H](C)[C@]3(O)C(=O)CO)[C@@H]2C1[3H] (stereo partly drawn) [[^3 H]-dexamethasone, 6,7[^3 H] dexamethasone] | – | – | – | – | Kd [6]: 0.15 µM |
| C[C@]12CC[C@@H]3c4ccc(O)cc4CC[C@H]3[C@@H]1CC[C@@H]2O [estradiol-17β] | – | – | – | Neither triamcinolone, nor other steroids such as testosterone and estradiol-17β had any effect | effect on the binding of 8G11-C6 to partially purified glucocorticoid receptor [4]: no effect |
| triamcinolone | 0.0032 µM | 0.015 µM | 0.015 µM | Neither triamcinolone, nor other steroids such as testosterone and estradiol-17β had any effect | Kd (glucocorticoid receptor): 0.005 µM |

From patent US4818684A, “Auto-anti-idiotypic monoclonal antibodies to steroid receptors and uses thereof” (The Trustees of Columbia University in the City of New York, priority 1985, dated 1989)
